Data taken from US10550163B2 (The Regents of the University of California, priority 2014, dated 2020).

Experiments:
[1] = test system: endothelial cell NO production; assay: Endothelial cell nitric oxide production by electron spin resonance (ESR); format: cell-based, bovine; conditions: endothelial cells, 37° C., 60 minutes, Mean±SEM
Method: (§1) Confluent endothelial cells were incubated with different peptide fragments V1-9aa, V2-10aa, and V3-11aa at the same molar concentration of 1.47 nmol/L at 37° C. for 60 minutes in modified Krebs/HEPEs buffer containing the NO-specific spin trap Fe^2+(DETC)2. Cells were then gently collected for analysis of NO production by using electron spin resonance (ESR).
as §1, with “different combination of” for “different”, “V1-9aa alone, V1-9aa+V2-10aa (1:1), V1-9aa+V3-11aa (1:1),” for “V1-9aa, V2-10aa,”, “V2-10aa+V3-11aa (1:1)” for “V3-11aa”, “same total” for “same”
To further identify the synergistic effects peptide fragments according to the present invention, endothelial cells were treated with different combinations of peptide fragments. The treatment groups were: V1-9aa+V2-10aa group, V1-9aa+V3-11aa group, and V2-10aa+V3-11aa group. The amount of each peptide fragment was 50% of the total amount by molar concentration (or equal volume at the same molar concentration) of peptide fragments in the composition, and the final molar concentration was 1.47 nmol/L. Control group (no peptide treatment) and V1-9aa group (1.47 nmol/L) were used to compare with the combination groups. The results, shown in FIG. 7, indicate that the V1-9aa+V2-10aa group produced more NO than the V1-9aa group (V1-9aa+V2-10aa: 1.90±0.50 fold vs. V1-9aa: 1.42±0.18 fold, p<0.05).
Bovine aortic endothelial cells (BAECs, Cell Systems, Kirkland, Wash., USA) were cultured in media 199 containing 10% fetal bovine serum (FBS) as previously described. See Chalupsky & Cai, PNAS USA 2005; 102:9056-9061; and Nguyen & Cai, PNAS USA 2006; 103:6530-6535.

I/R-injured mouse hearts = assay: Langendorff ischemia/reperfusion injury of isolated mouse hearts, post-conditioning (peptide at reperfusion); infarct size by TTC; design: species or system mouse (C57BL/6J); conditions: isolated C57BL6 hearts, peptide 1.47 nmol/L during 60 min reperfusion after 20 min ischemia, Control I/R 37.6±1.3%, Mean±SEM
Method: Hearts of C57BL6 mice were freshly isolated and subject to ischemia reperfusion (I/R) injury using a Langendorff perfusion system. Hearts were pre-perfused with Krebs-Henseleit buffer for 40 minutes, and then I/R injury was consistently produced by subjecting the hearts to 20 minutes of normo-thermic ischemia, followed by reperfusion for 60 minutes with or without peptide fragment V1, V2, or V3 at the same molar concentration of 1.47 nmol/L. Sections of hearts were stained with 2,3,5-TTC and infarct area calculated as % of risk area.
Post-conditioning I/R experiments were performed as illustrated in FIG. 4A. Different peptide fragments V1-9aa, V2-10aa, V3-16aa, and V3-11aa were used at the same molar concentration of 1.47 nmol/L. Sections of hearts were stained with 2,3,5-TTC and infarct area calculated as % of risk area.
Male C57BL/6J mice (8-12 weeks old) were obtained from the Charles River Laboratories (Wilmington, Mass., USA). After anesthetized with intraperitoneal pentobarbitone (60 mg/kg), mouse hearts were harvested immediately and the aortas were cannulated with a 20-gauge stainless steel blunt needle and transferred to the Langendorff rig and perfused retrograde instantly with modified Krebs-Henseleit buffer (KHB) […] as previously described. See Bouhidel et al. Front Biosci (Landmark Ed) 2014; 19:566-570, and Zhang et al., J Mol Cell Cardiol. 2010; 48:1060-1070. […] Hearts were then harvested for analyses of infarct size. For post-conditioning treatment with peptide fragments, hearts underwent 40 minutes of KHB perfusion, 20 minutes of global ischemia, and a 60 minute reperfusion with different peptide fragments.
At the end of I/R protocol, hearts were sliced perpendicular to the long-axis of the heart at 1 mm intervals and stained with 1% triphenyl tetrazolium chloride (TTC) in PBS for 10 minutes at room temperature. After washing with PBS once, sections of the hearts will be fixed in 10% formalin overnight. […] Infarct size is expressed as an infarct-to-risk zone ratio (the risk zone is the whole ventricular volume in this global ischemic model).

[2] = single peptide 1.47 nmol/L, ESR (FIG. 6)

Substance	NO production, fold vs. control [1, 2]	infarct size (infarct area as % of risk area) (I/R-injured mouse hearts)	NO production, fold vs. control ([1]; combination experiment (FIG. 7), 1:1, total 1.47 nmol/L, ESR)
V2-10aa: SEQ ID NO: 5, residues 368-377 of human netrin-1: CLNCRHNTAG (listed as Homo sapiens)	1.44±0.08 fold	18.6±1.7%	–
V1-9aa: SEQ ID NO: 4, residues 304-312 of human netrin-1: CDCRHNTAG (listed as Homo sapiens)	1.50±0.09 fold	16.8±2.2%	1.42±0.18 fold
V3-11aa: SEQ ID NO: 6, residues 423-433 of human netrin-1: CPCKDGVTGIT (listed as Homo sapiens)	1.45±0.11 fold	16.7±3.0%	–
